{
  "source": "patent US8273404B2",
  "about": "“Extraction of solvents from drug containing polymer reservoirs” (Cordis Corporation, priority 2008, dated 2012)",
  "key": {"[1]": {"assay": "Liquid formulations of sirolimus and CCI-779: concentration by liquid chromatography/HPLC, visual observation", "format": "physicochemical"}, "[2]": {"tested_on": "human coronary artery smooth muscle cells", "assay": "Anti-proliferative activity in cultured human coronary artery smooth muscle cells stimulated with two percent fetal bovine serum", "format": "cell-based", "settings": "for effect of the added agent on the anti-proliferative activity of rapamycin: agent added to rapamycin treated human coronary artery smooth muscle cells; for effect of the added agent on the anti-proliferative activity of rapamycin / inhibition of human coronary artery smooth muscle cell proliferation (in words): two percent fetal bovine serum; for inhibition of human coronary artery smooth muscle cell proliferation (in words): agent alone", "excerpt": "The multiple curves represent various concentrations of mycophenolic acid ranging from zero to one thousand nanomolar concentrations.\nFIG. 58 illustrates, in graphical format, the anti-proliferative activity of cladribine in non-synchronized cultured human coronary artery smooth muscle cells stimulated with two percent fetal bovine serum.\nThe multiple curves represent various concentrations of cladribine ranging from zero to nine hundred nanomolar concentrations.\n(§1) The multiple curves represent various concentrations of topotecan ranging from zero to three hundred nanomolar concentrations.\n(§2) The multiple curves represent various concentrations of etoposide ranging from zero to eight hundred nanomolar concentrations.\nThe multiple curves represent various concentrations of Panzem® ranging from zero to 100 micromolar concentrations.\nCurve 8702 illustrates the percent inhibition for various concentrations. In FIG. 88, the six curves 8802, 8804, 8806, 8808, 8810 and 8812 represent various concentrations of PX867 with various concentrations of sirolimus. […] More specifically, curve 8812 illustrates the percent inhibition for a 240 nM PX-867 concentration. […] This may be compared to curve 8804 which represents a 15 nM PX-867 concentration."}, "[3]": {"tested_on": "human coronary artery smooth muscle cell", "assay": "MTS cytotoxicity assay of Panzem", "format": "cell-based", "settings": "concentrations up to 30,000.00 nanomolar", "excerpt": "Typically, a control is utilized to determine baseline toxicity."}, "[4]": {"assay": "In vitro release kinetics from coated stents", "format": "physicochemical", "settings": "single-layer sirolimus/cilostazol coating of FIG. 83"}, "[5]": {"assay": "In vivo release kinetics from coated stents, porcine pharmacokinetics studies", "settings": "combination coatings with rapamycin", "excerpt": "The topcoat is two hundred micro grams.\nFIG. 61 is a graphical representation of the in vivo release kinetics of cladribine from a polymeric coating on Bx Velocity® stents, available from Cordis Corporation, implanted in a Yorkshire pig. The basecoat comprises an 85/15 ratio of PVDF and HFP and cladribine for a total combined weight of one thousand eight hundred micrograms (cladribine comprising thirty percent of the total weight). The topcoat comprises an 85/15 ratio of PVDF/HFP and no cladribine. The total weight of the topcoat is three hundred micrograms.\n(§3) The basecoat is applied to Bx Velocity® stents and implanted into Yorkshire pigs.\nas §3\nAnother critical parameter for the performance of the thrombus resistance of a device coated with cilostazol is the duration of the drug release from the coating. This is of particular significance in the two weeks after device implantation. […] The purpose of the porcine PK study is to assess the local pharmacokinetics of a drug eluting stent at a given implantation time. Normally three stents are implanted in three different coronary arteries in a pig for a given time point and then retrieved for total drug recovery analysis. The stents are retrieved at predetermined time points; namely, 1, 3 and 8 days. The stents are extracted and the total amount of drug remaining on the stents is determined by analysis utilizing HPLC (high performance liquid chromatography) for total drug amount. The difference between the original amount of drug on the stent and the amount of drug retrieved at a given time represents the amount of drug released in that period. The continuous release of drug into surrounding arterial tissue is what prevents the neointimal growth and restenosis in the coronary artery. A normal plot represents the percentage of total drug released (%, y-axis) vs. time of implantation (day, x-axis). […] Curve 8102 represents cilostazol and curve 8104 represents sirolimus. […] In this exemplary configuration, the stent 8300 is coated with two layers. […]"}, "[6]": {"assay": "Cell viability assay (cytotoxicity of topotecan, etoposide)", "format": "cell-based", "excerpt": "as §1, §2"}, "[7]": {"assay": "Injectable liquid formulations of paclitaxel: composition and observation", "format": "physicochemical", "excerpt": "This solution remained clear."}, "[8]": {"tested_on": "human coronary artery smooth muscle cell", "assay": "Inhibition of coronary artery smooth muscle cell proliferation by trichostatin A, in vitro cell culture study", "format": "cell-based", "settings": "read-out: anti-proliferative IC50", "excerpt": "FIG. 51 is a graph of the inhibition of coronary artery smooth muscle cells by trichostatin A in a cell culture study."}, "tumor cell lines": {"tested_on": "tumor cell lines", "settings": "tumor cell lines (Woo et al.); cited from earlier work"}},
  "data": [
    {"compound": "CO[C@H]1C[C@@H]2CC[C@@H](C)[C@@](O)(O2)C(=O)C(=O)N2CCCC[C@H]2C(=O)O[C@H]([C@H](C)C[C@@H]2CC[C@@H](OC(=O)C(C)(CO)CO)[C@H](OC)C2)CC(=O)[C@H](C)/C=C(\\C)[C@@H](O)[C@@H](OC)C(=O)[C@H](C)C[C@H](C)/C=C/C=C/C=C/1C", "note": "[CCI-779]", "values": [
      {"measurement": "concentration of CCI-779 in the final solution (HPLC)", "setting": "[1]; ethanol, Vitamin E TPGS, water", "result": 15000, "unit": "µg/mL"}
    ]},
    {"compound": "COC[C@H]1OC(=O)/C(=C\\N2CCCC2)C2=C(O)C(=O)C3=C([C@H](OC(C)=O)C[C@]4(C)C(=O)CC[C@@H]34)[C@]21C", "note": "[PX-867]", "values": [
      {"measurement": "percent inhibition of coronary artery smooth muscle cell proliferation", "setting": "[2]; PX867 alone at a concentration of about 10^−6", "result": "close to one hundred percent inhibition"},
      {"measurement": "effect of the added agent on the anti-proliferative activity of rapamycin", "setting": "[2]", "result": "strong synergistic effect"}
    ]},
    {"compound": "COc1cc2c(cc1O)CC[C@@H]1[C@@H]2CC[C@]2(C)[C@@H](O)CC[C@@H]12", "note": "[Panzem®, 2-methoxyestradiol]", "values": [
      {"measurement": "effect of the added agent on the anti-proliferative activity of rapamycin", "setting": "[2]", "result": "increases the percent of inhibition of rapamycin alone"},
      {"measurement": "inhibition of human coronary artery smooth muscle cell proliferation (in words)", "setting": "[2]", "result": "extremely effective inhibitor"},
      {"measurement": "cell survival in MTS assay", "setting": "[3]", "result": "do not reduce human coronary artery smooth muscle cell survival"}
    ]},
    {"compound": "O=C1CCc2cc(OCCCCc3nnnn3C3CCCCC3)ccc2N1", "note": "[cilostazol, 6[4-(1-cyclohexyl-1H-tetrazol-5-yl)-butoxy]-3,4-dihydro-2-(1H)-quinolinone]", "values": [
      {"measurement": "release in vitro", "setting": "[4]", "result": "~35", "unit": "%"}
    ]},
    {"compound": "Nc1nc(Cl)nc2c1ncn2[C@H]1C[C@H](O)[C@@H](CO)O1", "note": "[cladribine, 2-chlorodeoxyadenosine]", "values": [
      {"measurement": "effect of the added agent on the anti-proliferative activity of rapamycin", "setting": "[2]", "result": "potentiate the anti-proliferative activity of rapamycin"},
      {"measurement": "inhibition of human coronary artery smooth muscle cell proliferation (in words)", "setting": "[2]", "result": "completely inhibits human coronary artery smooth muscle cell proliferation"},
      {"measurement": "relative elution from polymeric stent coating in vivo (in words)", "setting": "[5]", "result": "elutes more rapidly than rapamycin"}
    ]},
    {"compound": "COc1cc([C@@H]2c3cc4c(cc3[C@@H](O[C@@H]3O[C@@H]5CO[C@@H](C)O[C@H]5[C@H](O)[C@H]3O)[C@H]3COC(=O)[C@H]23)OCO4)cc(OC)c1O", "note": "[etoposide]", "values": [
      {"measurement": "effect of the added agent on the anti-proliferative activity of rapamycin", "setting": "[2]", "result": "potentiate the anti-proliferative activity of rapamycin"},
      {"measurement": "cytotoxicity in cell viability assay", "setting": "[6]; concentrations up to ten micromolar", "result": "non-cytotoxic"}
    ]},
    {"compound": "COc1c(C)c2c(c(O)c1C/C=C(\\C)CCC(=O)O)C(=O)OC2", "note": "[mycophenolic acid]", "values": [
      {"measurement": "effect of the added agent on the anti-proliferative activity of rapamycin", "setting": "[2]", "result": "potentiates the anti-proliferative activity of rapamycin"},
      {"measurement": "relative elution from polymeric stent coating in vivo (in words)", "setting": "[5]", "result": "elutes more completely over a shorter duration than the rapamycin"}
    ]},
    {"compound": "CC(=O)O[C@H]1C(=O)[C@@]2(C)[C@H]([C@H](OC(=O)c3ccccc3)[C@]3(O)C[C@H](OC(=O)[C@H](O)[C@@H](NC(=O)c4ccccc4)c4ccccc4)C(C)=C1C3(C)C)[C@]1(OC(C)=O)CO[C@@H]1C[C@@H]2O", "note": "[paclitaxel]", "values": [
      {"measurement": "paclitaxel concentration as true liquid formulation", "setting": "[7]", "result": "up to 2.5 mg/ml"},
      {"measurement": "fold higher than the solubility of paclitaxel in water", "setting": "[7]; 2.5 mg/ml formulation", "result": "about 1000 fold"}
    ]},
    {"compound": "CO[C@H]1C[C@@H]2CC[C@@H](C)[C@@](O)(O2)C(=O)C(=O)N2CCCC[C@H]2C(=O)O[C@H]([C@H](C)C[C@@H]2CC[C@@H](O)[C@H](OC)C2)CC(=O)[C@H](C)/C=C(\\C)[C@@H](O)[C@@H](OC)C(=O)[C@H](C)C[C@H](C)/C=C/C=C/C=C/1C", "note": "[rapamycin]", "values": [
      {"measurement": "relative elution from polymeric stent coating in vivo (in words)", "setting": "[5]", "result": "slower release rate than that of mycophenolic acid"},
      {"measurement": "sirolimus concentration relative to the solubility of sirolimus in water", "setting": "[1]; 4 mg/ml PEG 200 formulation", "result": "about four hundred to about one thousand times higher"}
    ]},
    {"compound": "CC[C@@]1(O)C(=O)OCc2c1cc1n(c2=O)Cc2cc3c(CN(C)C)c(O)ccc3nc2-1", "note": "[topotecan]", "values": [
      {"measurement": "effect of the added agent on the anti-proliferative activity of rapamycin", "setting": "[2]", "result": "potentiate the anti-proliferative activity of rapamycin"},
      {"measurement": "cytotoxicity in cell viability assay", "setting": "[6]; concentrations up to one micromolar", "result": "non-cytotoxic"}
    ]},
    {"compound": "CC(/C=C/C(=O)NO)=C\\[C@@H](C)C(=O)c1ccc(N(C)C)cc1", "note": "[trichostatin A]", "values": [
      {"measurement": "IC50", "setting": "[8]", "result": "~6", "unit": "nM"},
      {"measurement": "anti-proliferative IC50's", "setting": "tumor cell lines", "result": "low nM range"}
    ]}
  ]
}
